Measurements as given in publication PMC8248988, “A signal capture and proofreading mechanism for the KDEL-receptor explains selectivity and dynamic range in ER retrieval” (eLife, 2021).

Legend:
HeLa S3 cells = experiment: ER secretion assay, xDEL ligand secretion (Western blot for mScarlet); assay type: cell-based, human
Text: (§1) Figure 1. ER retrieval signal abundance and affinity are not correlated. (a) Sequence logos for ER resident proteins with C-terminal KDEL retrieval signals and variants thereof calculated using frequency or protein abundance ([Itzhak et al., 2017]; [Itzhak et al., 2016]). (b) Combined cellular concentrations of ER resident proteins with canonical KDEL, RDEL, and HDEL retrieval sequences in HeLa cells and mouse brain. (c) Competition binding assays for [^3H]-TAEHDEL and unlabelled TAEKDEL, TAERDEL, and TAEHDEL to the KDEL receptor. IC50 values for the competing peptides were used to calculate the apparent KDwith the Cheng-Prusoff equation ([Cheng and Prusoff, 1973]). (d) Endogenous KDEL receptor redistribution was measured in COS-7 cells in the absence (-ligand) or presence of K/R/H/A/DDEL (mScarlet-xDEL^sec). TGN46 was used as a Golgi marker. Scale bar is 10 µm. (e) The mean difference for K/R/H/A/DDEL comparisons against the shared no ligand control are shown as Cummings estimation plots. The individual data points for the fraction of KDEL receptor fluorescence in the Golgi are plotted on the upper axes with sample sizes and p values. Figure 1—source data 1. Source data for the ligand-induced KDELR receptor retrieval assays in Figure 1e. Figure 1—figure supplement 1. Abundance of ER resident proteins and chaperones in human cells and mouse brain. (a) The mean concentration of ER resident chaperones with the indicated ER retrieval sequence variant is plotted in the bar graph ([Itzhak et al., 2017]; [Itzhak et al., 2016]). (b) Combined cellular concentrations of ER resident proteins with canonical KDEL, RDEL, and HDEL retrieval sequences in HeLa cells and mouse brain. (c) The mean concentration of KDELR1, KDELR2, and KDELR3 in HeLa cells and mouse brain is plotted in the bar graph ([Itzhak et al., 2017]; [Itzhak et al., 2016]). (d) Cells and media collected from HeLa S3 cells expressing the xDEL variants (mScarlet-xDEL^sec) indicated in the figure were Western blotted for resident ER chaperones and KDELR. (e) A bar graph of xDEL secretion showing mean ± SEM (n = 3). (f). Endogenous ER chaperone secretion was measured by western blotting after challenge with different retrieval signals, and plotted as a bar graph showing mean ± SEM (n = 3). Figure 1—figure supplement 1—source data 1. Source data for analysis of ER protein levels in Figure 1—figure supplement 1a and c. Figure 1—figure supplement 1—source data 2. […] (a) Distribution of human KDELR1 and (b) KDELR2 was measured in COS-7 cells in the absence (-ligand) or presence of K/R/H/A/DDEL retrieval signals (K/R/H/A/DDEL^sec). […] The fraction of KDEL receptor localised to the Golgi was measured before (no ligand) and after challenge with different retrieval signals as indicated. […]

PDI = experiment: ER chaperone secretion assay, PDI; assay type: cell-based, human
Text: as §1, with “(b) Combined cellular concentrations of ER resident proteins with canonical KDEL, RDEL, and HDEL retrieval sequences in HeLa cells and mouse brain. (c) The mean concentration of KDELR1, KDELR2, and KDELR3 in HeLa cells and mouse brain is plotted in the bar graph ([Itzhak et al., 2017]; [Itzhak et al., 2016]). (d) Cells and media collected from HeLa S3 cells expressing the xDEL variants (mScarlet-xDEL^sec) indicated in the figure were Western blotted for resident ER chaperones and KDELR. (e) A bar graph of xDEL secretion showing mean ± SEM (n = 3). (f).” left out, “3).” for “3). Figure 1—figure supplement 1—source data 1. Source data for analysis of ER protein levels in Figure 1—figure supplement 1a and c. Figure 1—figure supplement 1—source data 2.”

## ADEL [pcDNA3.1 hGHss-mScarlet-H. sapiens BiP639-654K651A (ADEL^SEC), secreted mScarlet fusion with human BiP C-terminus, ADEL signal]
HeLa S3 cells; HeLa S3 cells
  retention or secretion of the xDEL ligand (in words): mostly secreted
HeLa S3 cells; mean, HeLa S3, 24 hr, cells and media Western blot densitometry
  xDEL secretion (mScarlet): 51.6
HeLa S3 cells; replicate 1
  xDEL secretion (mScarlet): 33.9
HeLa S3 cells; replicate 2
  xDEL secretion (mScarlet): 69.2
PDI; mean, HeLa S3, 24 hr, Western blot densitometry
  PDI secretion after challenge with retrieval signal: 6.6
PDI; replicate 1
  PDI secretion after challenge with retrieval signal: 7.3
PDI; replicate 2
  PDI secretion after challenge with retrieval signal: 6.0
